In patent US20250163057A1, “DCN-1 MODULATING COMPOUNDS AND METHODS OF USE THEREOF” (Cellarity, Inc., priority 2023, published 2025):
pIC50: −log10 of the molar value. Like-named read-outs stand apart in the source and are kept apart here.

What was measured:
[1] = target: DCN1 protein (Homo sapiens (Human), UniProt Q96GG9); assay: Intact Protein MS Analysis with the RapidFire-TOF System (covalent adduct formation); type: binding; conditions: MS Emax; 400 nM DCN1, 3 hours at room temperature
Outline: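 Tag-cleaved human DCN1 (400 nM) expressed in E. coli, in 25 mM Tris-HCl, 200 mM NaCl, 1 mM DTT, was incubated with 11 compound concentrations for 3 h at room temperature and quenched with 0.2% formic acid. Intact-protein Q-TOF MS with deconvolution detected the compound adduct mass.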

[2] = target: DCN1 (DCUND1) protein PONY domain (Homo sapiens (Human), UniProt Q96GG9); assay: TR-FRET assay, DCN1 binding with FAM-labeled probe; conditions: for IC50: TR FRET IC50 1 hr (nM)
Outline: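 TR-FRET ratio (Tb-DCN1 to FAM-probe) read at 1, 5 and 24 hrs after compound addition. Protein: recombinant PONY domain from E. coli, biotinylated and coupled to streptavidin terbium. Either 5 nM DCN1 with 20 nM FAM-probe, or 0.31 nM DCN1 with 100 nM FAM-labelled plus 800 nM unlabelled probe.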

[3] = tested on: Cullin-3 (CUL3) neddylation; assay: AlphaLISA assay for Cullin-3 (CUL3) neddylation in TF 1 cells; type: cell-based; conditions: 3 hours treatment
Outline: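 Neddylated CUL3 was quantified by AlphaLISA in lysates of TF 1 cells exposed for 3 h to test compound in IMDM without supplements. Percent inhibition set between vehicle and 1 μM DI-1548 positive control; IC50 derived by Hill-equation fitting of dose-response curves.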

[4] = 24 hr after treatment with compound, read-out: TR FRET IC50 24 hr
[5] = read-out: TR FRET IC50 1 hr, 1 hr after treatment with compound
[6] = 1 hr after treatment with compound

DCN1 protein, sequence (Q96GG9 whole entry): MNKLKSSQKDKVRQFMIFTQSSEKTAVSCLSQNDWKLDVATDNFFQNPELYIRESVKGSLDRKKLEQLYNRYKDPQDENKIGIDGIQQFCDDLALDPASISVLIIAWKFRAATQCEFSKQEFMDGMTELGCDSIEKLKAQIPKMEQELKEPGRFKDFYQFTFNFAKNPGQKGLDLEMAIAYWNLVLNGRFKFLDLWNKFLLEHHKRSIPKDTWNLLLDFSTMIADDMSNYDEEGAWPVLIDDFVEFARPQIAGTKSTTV
DCN1 (DCUND1) protein PONY domain, sequence (Q96GG9 60-248): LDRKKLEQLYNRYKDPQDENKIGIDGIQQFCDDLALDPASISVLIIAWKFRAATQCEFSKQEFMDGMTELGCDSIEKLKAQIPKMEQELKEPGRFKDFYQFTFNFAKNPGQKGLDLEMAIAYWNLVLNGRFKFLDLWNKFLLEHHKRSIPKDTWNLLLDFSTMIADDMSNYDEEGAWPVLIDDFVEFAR

SMILES | % Adduct Formation [1] | pIC50 [2, 4] | pIC50 [2, 5] | pIC50 ([3]; Homo sapiens) | pIC50 ([3]; Homo sapiens, TF-1, 3 h) | pIC50 [3] | IC50 [2, 6] [nM]
CCN1C(=O)[C@@H](NC(=O)c2cccc3c2OCCC3)[C@@H](C2CC2)c2c(C(=O)N3[C@H](C#N)C[C@H]4C[C@H]43)nn(C3CCOCC3)c21 [Compound I-394] | +++ (MS Emax % adduct formation greater than 80.0 and less than or equal to 100.0) | ≥ 6.70 | ≥ 6.70 | ≥ 7.00 |  |  | 
CCN1C(=O)[C@@H](NC(=O)c2csc(C(F)(F)F)n2)[C@@H](C2CC2)c2c(C(=O)N3[C@H](C#N)C[C@H]4C[C@H]43)nn(C3CCOCC3)c21 [Compound I-392] | +++ (MS Emax % adduct formation greater than 80.0 and less than or equal to 100.0) | ≥ 6.70 | ≥ 6.70 | ≥ 7.00 |  |  | 
CCN1C(=O)[C@@H](NC(=O)c2cccc(C(F)(F)F)c2)[C@@H](c2ccc(F)cc2)c2c(C(=O)N(CC#N)CC#N)nn(-c3ccccc3)c21 [Compound I-302] | +++ (MS Emax % adduct formation greater than 80.0 and less than or equal to 100.0) | ≥ 6.70 | ≥ 6.70 |  | ≥ 7.00 |  | 
CCN1C(=O)[C@@H](NC(=O)c2cccc(C(F)(F)F)n2)[C@@H](C2CC2)c2c(C(=O)N3[C@H](C#N)C[C@H]4C[C@H]43)nn(C3CCOCC3)c21 [Compound I-390] | +++ (MS Emax % adduct formation greater than 80.0 and less than or equal to 100.0) | ≥ 6.70 | ≥ 6.70 | ≥ 7.00 |  |  | 
N#C[C@@H]1C[C@H]2C[C@H]2N1C(=O)c1nn(C2CCOCC2)c2c1[C@H](C1CC1)[C@H](NC(=O)c1cccc(C(F)(F)F)c1)C(=O)N2C1CC1 [Compound I-388, N-((4S,5S)-3-((1R,3S,5R)-3-cyano-2-azabicyclo[3.1.0]hexane-2-carbonyl)-4,7-dicyclopropyl-6-oxo-1-(tetrahydro-2H-pyran-4-yl)-4,5,6,7-tetrahydro-1H-pyrazolo[3,4-b]pyridin-5-yl)-3-(trifluoromethyl)benzamide] | ++ (MS Emax % adduct formation greater than 30.0 and less than or equal to 80.0) | ≥ 6.70 | ≥ 6.70 |  | ≥ 7.00 |  | 
CCN1C(=O)[C@@H](NC(=O)c2cccc(C(F)(F)F)c2)[C@@H](c2ccc(F)cc2)c2c(C(=O)N(C)CC#N)nn(-c3ccccc3)c21 (racemic) [Compound I-282] | +++ (MS Emax % adduct formation greater than 80.0 and less than or equal to 100.0) | ≥ 6.70 | ≥ 6.70 |  |  | ≥ 7.00 | 
CCN1C(=O)[C@@H](NC(=O)c2cccc(C(F)(F)F)c2)[C@@H](c2ccc(F)cc2)c2c(C(=O)N3CCC[C@H]3C#N)nn(-c3cccc(OCCN4CC5(COC5)C4)c3)c21 [Compound I-342] | +++ (MS Emax % adduct formation greater than 80.0 and less than or equal to 100.0) | ≥ 6.70 | ≥ 6.70 |  | ≥ 7.00 |  | 
CCN1C(=O)[C@@H](NC(=O)c2cccc(C(F)(F)F)c2)[C@@H](c2ccc(F)cc2)c2c(C(=O)N(C)[C@@H](C#N)CCO)nn(-c3ccccc3)c21 (relative stereo) [Compound I-290, (4S,5S)—N-[(1R*)-1-cyano-3-hydroxypropyl]-7-ethyl-4-(4-fluorophenyl)-N-methyl-6-oxo-1-phenyl-5-[3-(trifluoromethyl)benzamido]-4H,5H-pyrazolo[3,4-b]pyridine-3-carboxamide] | + (MS Emax % adduct formation greater than or equal to 0.0 and less than or equal to 30.0) | ≥ 6.70 |  |  | ≥ 7.00 |  | ≤ 200
CCCn1nc(C(=O)N(C)C(C)C#N)c2c1N(CC)C(=O)[C@@H](NC(=O)c1cccc(C(F)(F)F)c1)[C@H]2c1ccc(F)cc1 (stereo partly shown) [Compound I-307] | +++ (MS Emax % adduct formation greater than 80.0 and less than or equal to 100.0) | ≥ 6.70 | ≥ 6.70 |  | ≥ 7.00 |  | 
CCN1C(=O)[C@@H](NC(=O)c2cccc(C(F)(F)F)c2)[C@@H](c2ccc(F)cc2)c2c(C(=O)N(C)[C@H](C#N)CCN3CCC34COC4)nn(-c3ccccc3)c21 [Compound I-314] | +++ (MS Emax % adduct formation greater than 80.0 and less than or equal to 100.0) | ≥ 6.70 | ≥ 6.70 |  | ≥ 7.00 |  | 
CCN1C(=O)[C@@H](NC(=O)c2cccc(C(F)(F)F)c2)[C@@H](C2CC2)c2c(C(=O)N3[C@H](C#N)C[C@H]4C[C@H]43)nn(-c3ccccc3)c21 [Compound I-326] | +++ (MS Emax % adduct formation greater than 80.0 and less than or equal to 100.0) | ≥ 6.70 | ≥ 6.70 |  | ≥ 7.00 |  | 
CCN1C(=O)[C@@H](NC(=O)c2cccc(C(F)(F)F)c2)[C@@H](c2ccc(F)cc2)c2c(C(=O)N3CC[C@H]3C#N)nn(-c3ccccc3)c21 [Compound I-275] | ++ (MS Emax % adduct formation greater than 30.0 and less than or equal to 80.0) | ≥ 6.70 | ≥ 6.70 |  | ≥ 7.00 |  | 
CCN1C(=O)[C@@H](NC(=O)c2cccc(C(F)(F)F)c2)[C@@H](c2ccc(F)cc2)c2c(C(=O)N(C)[C@H](C#N)CCN3CC4CCC(C3)O4)nn(-c3ccccc3)c21 [Compound I-318] | +++ (MS Emax % adduct formation greater than 80.0 and less than or equal to 100.0) | ≥ 6.70 |  |  | ≥ 7.00 |  | 1000 to 3000
CCN1C(=O)[C@@H](NC(=O)c2cccc(C(F)(F)F)c2)[C@@H](c2ccc(F)cc2)c2c(C(=O)N(CC#N)CCCN(C)C)nn(-c3ccccc3)c21 (racemic) [Compound I-271] | +++ (MS Emax % adduct formation greater than 80.0 and less than or equal to 100.0) | ≥ 6.70 | ≥ 6.70 |  | ≥ 7.00 |  | 
CCN1C(=O)[C@@H](NC(=O)c2cccc(C(F)(F)F)c2)[C@@H](c2ccc(F)cc2)c2c(C(=O)N(CC#N)CCN(C)C)nn(C3CCOCC3)c21 [Compound I-352] | +++ (MS Emax % adduct formation greater than 80.0 and less than or equal to 100.0) | ≥ 6.70 | ≥ 6.70 |  | ≥ 7.00 |  | 
CCN1C(=O)[C@@H](NC(=O)c2cccc(C(F)(F)F)c2)[C@@H](c2ccc(F)cc2)c2c(C(=O)N(C)[C@@H](C#N)CCN(C)C3COC3)nn(-c3ccccc3)c21 (single isomer, unassigned) [Compound I-311] | + (MS Emax % adduct formation greater than or equal to 0.0 and less than or equal to 30.0) | ≥ 6.70 | ≥ 6.70 |  | ≥ 7.00 |  | 
CCN1C(=O)[C@@H](NC(=O)c2cccc(C(F)(F)F)c2)[C@@H](c2ccc(F)cc2)c2c(C(=O)N(C)[C@@H](C#N)CCN3CC4CCC(C3)O4)nn(-c3ccccc3)c21 (mixture of isomers) [Compound I-319] | ++ (MS Emax % adduct formation greater than 30.0 and less than or equal to 80.0) | ≥ 6.70 |  |  | ≥ 7.00 |  | 1000 to 3000
CCN1C(=O)[C@@H](NC(=O)c2cccc(OC(F)(F)F)c2)[C@@H](C2CC2)c2c(C(=O)N3[C@H](C#N)C[C@H]4C[C@H]43)nn(C3CCOCC3)c21 [Compound I-396] | +++ (MS Emax % adduct formation greater than 80.0 and less than or equal to 100.0) | ≥ 6.70 | ≥ 6.70 | ≥ 7.00 |  |  | 
CCN1C(=O)[C@@H](NC(=O)c2cccc(C(F)(F)F)c2)[C@@H](c2ccc(F)cc2)c2c(C(=O)N(C)[C@@H](C#N)CCN3CCOCC3)nn(-c3ccccc3)c21 [Compound I-309] | + (MS Emax % adduct formation greater than or equal to 0.0 and less than or equal to 30.0) | ≥ 6.70 | ≥ 6.70 |  | ≥ 7.00 |  | 
CCN1C(=O)[C@@H](NC(=O)c2cccc(C(F)(F)F)c2)[C@@H](c2ccc(F)cc2)c2c(C(=O)N(C)[C@H](C#N)CCN3CC4CC(C3)O4)nn(-c3ccccc3)c21 [Compound I-312] | +++ (MS Emax % adduct formation greater than 80.0 and less than or equal to 100.0) | ≥ 6.70 | ≥ 6.70 |  | ≥ 7.00 |  | 
CCN1C(=O)[C@@H](NC(=O)c2cccc(C(F)(F)F)c2)[C@@H](c2ccc(F)cc2)c2c(C(=O)N(C)[C@H](C#N)CCO)nn(-c3ccccc3)c21 (relative stereo) [Compound I-301, (4S,5S)—N-[(1S*)-1-cyano-3-hydroxypropyl]-7-ethyl-4-(4-fluorophenyl)-N-methyl-6-oxo-1-phenyl-5-[3-(trifluoromethyl)benzamido]-4H,5H-pyrazolo[3,4-b]pyridine-3-carboxamide] | ++ (MS Emax % adduct formation greater than 30.0 and less than or equal to 80.0) | ≥ 6.70 |  |  | ≥ 7.00 |  | ≤ 200
CCN1C(=O)[C@@H](NC(=O)c2cccc(C(F)(F)F)c2)[C@@H](c2ccc(F)cc2)c2c(C(=O)N3CCNC[C@@H]3C#N)nn(-c3ccccc3)c21 [Compound I-280] | +++ (MS Emax % adduct formation greater than 80.0 and less than or equal to 100.0) | ≥ 6.70 | ≥ 6.70 |  | ≥ 7.00 |  | 
